Row | melting point [°C] | Structure (SMILES)
1 | 162 | O=S(=O)(CCCCCOc1ccc(C2=C(c3ccccc3)CCCc3cc(O)ccc32)cc1)c1ccccc1 [Example 53, 6-phenyl-5-[4-(5-phenylsulfonyl-pentyloxy)-phenyl]-8,9-dihydro-7H-benzocyclohepten-2-ol]
2 | 139 | CC(C)(C)c1ccc(SCCCCCOc2ccc(C3=C(c4ccccc4)CCCc4cc(O)ccc43)cc2)cc1 [Example 54, 5-{4-[5-(4-tert-Butyl-phenylthio)-pentyloxy]-phenyl}-6-phenyl-8,9-dihydro-7H-benzocyclohepten-2-ol]
